We go through one compound from US9661844B2, “Pesticide composition delivery vehicles” (Dow AgroSciences LLC, priority 2012, dated 2017).

In one experiment the test system is nematode. Briefly: Capsule field trial Location 2, nematode count. Format: in vivo. Particulars: 3.5 Kg/Ha granules. An excerpt: (§1) Field trials for the gel capsules of Example I were established under commercial conditions in banana production areas of Central America. Bananas were transplanted using commercial procedures typical of the area. Gel capsules according to Example I were used as a post-plant treatment. A commercial standard was also included as a comparison in each test. Treatments and use rates for both field trials are included in the Tables 3 and 4 below. Location 1 included four replications for each treatment and location 2 included three replications.
(§2) Gel caps were applied in the area immediately surrounding the base of the banana plant. Holes were made to a depth of 15-20 cm using a rod inserted into the soil. Gel caps were applied into the holes by hand and soil was reapplied into the holes to cover the gel caps. Commercial standards were formulated as granules and applied around the base of the plant without incorporation.
Several parameters were measured at intervals following application of the pesticide. Plant height and plant trunk diameter were evaluated over time at intervals of approximately two, four and six weeks after application of the pesticide. Root weight, percent functional roots and nematode counts were taken at intervals of 45 and 60 days after application (DAA). Plant height and trunk diameter were evaluated as direct measurements and are recorded in units of centimeters. […]

A further experiment relates to banana plant. Briefly: Capsule field trial Location 2, banana growth parameters. Format: in vivo. Particulars: 3.5 Kg/Ha granules.
From the text: as §1, §2
Several parameters were measured at intervals following application of the pesticide. Plant height and plant trunk diameter were evaluated over time at intervals of approximately two, four and six weeks after application of the pesticide. Root weight, percent functional roots and nematode counts were taken at intervals of 45 and 60 days after application (DAA). Plant height and trunk diameter were evaluated as direct measurements and are recorded in units of centimeters. Root weight, percent functional roots and nematode counts were obtained by separate soil samples which were taken and returned to the lab for analysis. Roots were separated from the soil and weighed. A separate, visual estimate was made to determine the percent of these roots that were healthy and functional. Nematode counts were made by extracting them from the roots and soil and then estimating the total by counting the actual number in subsamples of the extracted materials.

Take `CCOP(=O)(SC(C)CC)SC(C)CC` (stereo not drawn) [cadusaphos, cadusafos]: the Nematode count in the experiment with nematode (45 DAA) is 11,200a; with nematode (60 DAA), 23,733a. Besides, the “Plant Height” value with banana plant (15 DAA) worked out at 143 cm; in the experiment with banana plant (29 DAA) it was 156 cm; in the experiment with banana plant (43 DAA), 169 cm. The values for the Stem diameter in the experiment with banana plant (15 DAA), in the experiment with banana plant (29 DAA) and in the experiment with banana plant (43 DAA) were 30 cm, 33 cm and 36 cm, respectively. The “% Functional roots” value in the experiment with banana plant (45 DAA) worked out at 82%; in the experiment on banana plant (60 DAA), 86%. Besides, the Root weight in the experiment with banana plant (45 DAA) was 44 gms; in the experiment with banana plant (60 DAA), 53 gms.
